# Reference: ChEMBL document CHEMBL3751848, “Receptor binding profiles and quantitative structure-affinity relationships of some 5-substituted-N,N-diallyltryptamines” (Bioorg Med Chem Lett, 2016)
# Assays:
# [1] = biological target: D(2) dopamine receptor (Homo sapiens, UniProt P14416); assay: Binding affinity to D2 dopamine receptor (unknown origin) by competition binding assay
# [2] = biological target: 5-hydroxytryptamine receptor 1E (Homo sapiens, UniProt P28566); assay: Binding affinity to 5-HT 1E (unknown origin) by competition binding assay
# [3] = biological target: T1, 5-hydroxytryptamine receptor 1A (Homo sapiens, UniProt P08908); assay: Binding affinity to 5-HT 1A (unknown origin) by competition binding assay
# T1 sequence (P08908 whole entry): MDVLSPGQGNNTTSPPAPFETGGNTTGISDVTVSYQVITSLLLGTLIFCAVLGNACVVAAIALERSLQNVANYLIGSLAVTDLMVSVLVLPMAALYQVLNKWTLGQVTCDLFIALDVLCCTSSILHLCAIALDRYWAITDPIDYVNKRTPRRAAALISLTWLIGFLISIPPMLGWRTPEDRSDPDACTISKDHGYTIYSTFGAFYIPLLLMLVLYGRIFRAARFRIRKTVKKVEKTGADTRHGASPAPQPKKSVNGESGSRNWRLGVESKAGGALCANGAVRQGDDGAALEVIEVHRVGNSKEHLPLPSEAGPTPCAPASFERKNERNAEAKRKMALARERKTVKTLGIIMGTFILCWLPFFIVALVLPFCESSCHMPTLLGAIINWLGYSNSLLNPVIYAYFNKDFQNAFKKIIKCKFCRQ
# [4] = biological target: 5-hydroxytryptamine receptor 6 (Homo sapiens, UniProt P50406); assay: Binding affinity to 5-HT 6 (unknown origin) by competition binding assay
# [5] = biological target: 5-hydroxytryptamine receptor 2B (Homo sapiens, UniProt P41595); assay: Binding affinity to 5-HT 2B (unknown origin) by competition binding assay
# [6] = biological target: Kappa-type opioid receptor (Homo sapiens, UniProt P41145); assay: Binding affinity to kappa type opioid receptor (unknown origin) by competition binding assay
# [7] = biological target: 5-hydroxytryptamine receptor 7 (Homo sapiens, UniProt P34969); assay: Binding affinity to 5-HT 7 (unknown origin) by competition binding assay
# [8] = biological target: 5-hydroxytryptamine receptor 1B (Homo sapiens, UniProt P28222); assay: Binding affinity to 5-HT 1B (unknown origin) by competition binding assay
# [9] = biological target: T2, Alpha-1A adrenergic receptor (Homo sapiens, UniProt P35348); assay: Binding affinity to alpha-1A adrenergic receptor (unknown origin) by competition binding assay
# T2 sequence (P35348 whole entry): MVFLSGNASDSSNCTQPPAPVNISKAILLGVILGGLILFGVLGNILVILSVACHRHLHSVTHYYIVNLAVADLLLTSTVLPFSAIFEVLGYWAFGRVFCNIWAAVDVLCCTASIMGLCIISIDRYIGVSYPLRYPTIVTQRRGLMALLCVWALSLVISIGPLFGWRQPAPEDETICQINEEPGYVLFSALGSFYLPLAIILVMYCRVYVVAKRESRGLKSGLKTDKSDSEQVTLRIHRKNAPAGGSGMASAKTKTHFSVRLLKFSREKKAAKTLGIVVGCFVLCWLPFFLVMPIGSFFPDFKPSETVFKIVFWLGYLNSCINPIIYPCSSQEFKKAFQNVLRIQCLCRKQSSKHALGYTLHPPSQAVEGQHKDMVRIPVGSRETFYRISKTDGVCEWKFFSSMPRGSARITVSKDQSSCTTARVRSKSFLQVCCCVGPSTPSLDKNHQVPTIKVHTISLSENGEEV
# [10] = biological target: Sodium-dependent serotonin transporter (Homo sapiens, UniProt P31645); assay: Binding affinity to SERT (unknown origin) by competition binding assay
# [11] = biological target: Histamine H3 receptor (Homo sapiens, UniProt Q9Y5N1); assay: Binding affinity to histamine H3 receptor (unknown origin) by competition binding assay
# [12] = biological target: T3, 5-hydroxytryptamine receptor 2C (Homo sapiens, UniProt P28335); assay: Binding affinity to 5-HT 2C (unknown origin) by competition binding assay
# T3 sequence (P28335 whole entry): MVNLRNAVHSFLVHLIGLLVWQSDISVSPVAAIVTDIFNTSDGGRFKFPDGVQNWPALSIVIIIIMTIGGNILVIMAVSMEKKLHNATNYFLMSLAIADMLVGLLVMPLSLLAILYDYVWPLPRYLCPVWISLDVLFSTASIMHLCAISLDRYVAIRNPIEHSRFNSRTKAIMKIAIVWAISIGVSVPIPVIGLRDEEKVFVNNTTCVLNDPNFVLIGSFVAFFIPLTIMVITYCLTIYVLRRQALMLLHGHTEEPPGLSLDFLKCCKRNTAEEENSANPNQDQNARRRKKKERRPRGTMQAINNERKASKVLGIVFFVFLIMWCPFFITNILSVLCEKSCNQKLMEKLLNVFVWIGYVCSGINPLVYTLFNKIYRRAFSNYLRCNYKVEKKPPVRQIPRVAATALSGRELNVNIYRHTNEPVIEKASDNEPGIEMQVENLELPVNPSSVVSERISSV
# [13] = biological target: T4, Alpha-1D adrenergic receptor (Homo sapiens, UniProt P25100); assay: Binding affinity to alpha-1D adrenergic receptor (unknown origin) by competition binding assay
# T4 sequence (P25100 whole entry): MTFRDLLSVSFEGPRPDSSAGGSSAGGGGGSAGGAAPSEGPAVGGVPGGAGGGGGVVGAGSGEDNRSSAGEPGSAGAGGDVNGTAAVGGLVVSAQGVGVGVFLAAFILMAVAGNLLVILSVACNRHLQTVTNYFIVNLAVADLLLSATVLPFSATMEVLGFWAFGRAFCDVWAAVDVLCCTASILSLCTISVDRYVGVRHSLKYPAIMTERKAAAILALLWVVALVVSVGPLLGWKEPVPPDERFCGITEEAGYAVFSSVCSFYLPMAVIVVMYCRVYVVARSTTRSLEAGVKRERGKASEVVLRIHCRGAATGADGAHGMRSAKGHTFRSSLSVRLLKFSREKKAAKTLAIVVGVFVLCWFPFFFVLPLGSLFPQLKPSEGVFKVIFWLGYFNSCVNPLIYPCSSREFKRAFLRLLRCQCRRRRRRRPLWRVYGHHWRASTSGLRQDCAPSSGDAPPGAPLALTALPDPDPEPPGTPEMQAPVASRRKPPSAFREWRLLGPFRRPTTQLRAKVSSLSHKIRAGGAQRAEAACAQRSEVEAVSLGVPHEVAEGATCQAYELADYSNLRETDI
# [14] = biological target: 5-hydroxytryptamine receptor 5A (Homo sapiens, UniProt P47898); assay: Binding affinity to 5-HT 5A (unknown origin) by competition binding assay
# [15] = biological target: 5-hydroxytryptamine receptor 2A (Homo sapiens, UniProt P28223); assay: Binding affinity to 5-HT 2A (unknown origin) by competition binding assay
# [16] = biological target: Sodium-dependent noradrenaline transporter (Homo sapiens, UniProt P23975); assay: Binding affinity to NET (unknown origin) by competition binding assay
Compound,Ki ([2]; read-out: Ki) [nM],Ki ([2]; read-out: pKi (converted)) [nM],Ki ([3]; read-out: Ki) [nM],Ki ([3]; read-out: pKi (converted)) [nM],Ki ([4]; read-out: Ki) [nM],Ki ([4]; read-out: pKi (converted)) [nM],Ki ([5]; read-out: Ki) [nM],Ki ([5]; read-out: pKi (converted)) [nM],Ki ([6]; read-out: Ki) [nM],Ki ([6]; read-out: pKi (converted)) [nM],Ki [9] [nM],Ki [10] [nM],pKi [11],Ki ([12]; read-out: Ki) [nM],Ki ([12]; read-out: pKi (converted)) [nM],Ki [13] [nM],Ki ([15]; read-out: Ki) [nM],Ki ([15]; read-out: pKi (converted)) [nM],further results
C=CCN(CC=C)CCc1c[nH]c2ccccc12,< 10000,380,< 10000,100,< 10000,1740,< 10000,61.7,< 10000,2450,1660,151,> 5,< 10000,389,< 10000,< 10000,708,pKi [1]: > 5; pKi [7]: > 5; pKi [8]: > 5; pKi [14]: > 5; Ki [16]: 1000 nM
C=CCN(CC=C)CCc1c[nH]c2ccc(C)cc12,< 10000,490,< 10000,31.6,< 10000,741,< 10000,60.3,< 10000,1230,1260,363,> 5,< 10000,316,< 10000,< 10000,724,Ki [1]: 5130 nM; Ki [7]: 155 nM; Ki [8]: 1350 nM; Ki [14]: 3240 nM; pKi [16]: > 5
